According to paper PMC6981816, “Characterization of Effectiveness in Concerted Ih Inhibition and IK(Ca) Stimulation by Pterostilbene (Trans-3,5-dimethoxy-4′-hydroxystilbene), a Stilbenoid” (International Journal of Molecular Sciences, 2020):

Target: T1, large-conductance Ca2+-activated K+ (BKCa) channel (IK(Ca)) (Rattus norvegicus, UniProt Q62976)
T1 construct: gene Kcnma1; native channel in GH3 pituitary cells
Assay: whole-cell patch clamp of IK(Ca), concentration-response; reversed by verruculogen
Type: cell-based

T1 sequence (Q62976 whole entry): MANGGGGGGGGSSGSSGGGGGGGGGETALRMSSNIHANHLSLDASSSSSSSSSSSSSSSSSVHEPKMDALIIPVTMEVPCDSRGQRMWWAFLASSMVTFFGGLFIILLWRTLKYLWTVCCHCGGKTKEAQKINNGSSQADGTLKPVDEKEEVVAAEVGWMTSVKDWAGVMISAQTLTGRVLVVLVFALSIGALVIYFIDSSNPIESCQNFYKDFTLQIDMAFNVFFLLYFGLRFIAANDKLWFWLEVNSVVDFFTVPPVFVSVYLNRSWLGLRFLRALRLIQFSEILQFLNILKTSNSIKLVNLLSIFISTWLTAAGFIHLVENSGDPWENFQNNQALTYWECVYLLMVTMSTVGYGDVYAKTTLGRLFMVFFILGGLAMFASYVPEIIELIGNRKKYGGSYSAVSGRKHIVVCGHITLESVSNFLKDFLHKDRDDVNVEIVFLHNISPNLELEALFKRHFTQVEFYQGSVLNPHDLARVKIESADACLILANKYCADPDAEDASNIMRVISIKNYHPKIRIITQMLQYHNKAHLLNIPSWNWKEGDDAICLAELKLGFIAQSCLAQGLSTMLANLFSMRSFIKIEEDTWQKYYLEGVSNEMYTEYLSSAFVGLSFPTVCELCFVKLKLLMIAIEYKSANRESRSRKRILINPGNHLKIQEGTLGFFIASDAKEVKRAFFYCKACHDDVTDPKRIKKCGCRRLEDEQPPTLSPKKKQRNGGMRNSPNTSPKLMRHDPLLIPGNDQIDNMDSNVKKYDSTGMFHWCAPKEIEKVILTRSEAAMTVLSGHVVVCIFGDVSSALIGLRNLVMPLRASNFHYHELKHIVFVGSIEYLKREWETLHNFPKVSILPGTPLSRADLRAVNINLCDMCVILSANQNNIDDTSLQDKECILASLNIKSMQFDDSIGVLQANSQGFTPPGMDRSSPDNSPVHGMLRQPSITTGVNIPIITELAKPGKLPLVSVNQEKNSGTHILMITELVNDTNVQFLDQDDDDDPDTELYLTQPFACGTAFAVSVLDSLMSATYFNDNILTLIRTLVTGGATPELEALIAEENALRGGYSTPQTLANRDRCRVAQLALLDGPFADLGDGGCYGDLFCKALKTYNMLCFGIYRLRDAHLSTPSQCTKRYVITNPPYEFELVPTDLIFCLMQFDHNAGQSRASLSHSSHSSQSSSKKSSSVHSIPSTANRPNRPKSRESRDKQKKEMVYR

COc1cc(/C=C/c2ccc(O)cc2)cc(OC)c1 [PTER, trans-3,5-dimethoxy-4′-hydroxystilbene]
EC50: 2.23 µM
